In patent US8420693B2, “Dipyrrole compounds, compositions, and methods for treating cancer or viral diseases” (Gemin X Pharmaceuticals Canada Inc., priority 2004, dated 2013):

Key:
[1] = tested on: C33A cervical carcinoma cells; experiment: Cancer cell viability by cellular ATP levels (ViaLight), C33A; format: cell-based; details: Homo sapiens, C-33-A, 72 h, 3 days of incubation, ATP levels relative to untreated control
Experimental: (§1) Selected cell lines included C33A cervical carcinoma cells and H1299 human non-small cell lung cancer-cells (American Type Culture Collection, Manassas, Va. USA), which were cultured in the media recommended by the American Type Culture Collection. The cells lines were plated in 96-well microtiter plates (PerkinElmer Life Sciences Inc, Boston, Mass., USA) at a confluency that allowed them to reach confluence after 4 days of growth. One day after plating, the cells were treated with various concentrations of Compounds. Stock solutions of the Compounds were prepared in dimethyl sulfoxide (Sigma-Aldrich Inc., St. Louis, Mo., USA), diluted in the recommended media and then added to the cells. The total dimethyl sulfoxide on the cells was 0.1%. After 3 days of incubation the ATP levels in the cells were quantified using a luminescent ViaLight detection system (Bio-Whittaker, MD, USA). The results were plotted relative to untreated control cells, which were set at a value of 100. The IC50s were determined using a best-fit sigmoidal dose response curve with variable slope.

[2] = tested on: H1299 human non-small cell lung cancer-cells; experiment: Cancer cell viability by cellular ATP levels (ViaLight), H1299; format: cell-based; details: NCI-H1299, 72 h, 3 days of incubation, ATP levels relative to untreated control
Experimental: as §1

SMILES	IC50 [1]	IC50 [2]
COC1=CC(c2cccnc2Cl)=NC1=Cc1[nH]c(C)cc1C [Compound 33, 2-chloro-3-(4-methoxy-5-((3,5-dimethyl-1H-pyrrol-2-yl)methylene)-5H-pyrrol-2-yl)pyridine]	8.73 µM	15.9 µM
COC1=CC(c2ccc3c(c2)OCCN3C)=NC1=Cc1[nH]c(C)cc1C [Compound 34, 3,4-dihydro-7-(4-methoxy-5-((3,5-dimethyl-1H-pyrrol-2-yl)methylene)-5H-pyrrol-2-yl)-4-methyl-2H-benzo[b][1,4]oxazine]	1.23 µM	1.24 µM
COC1=CC(c2ccc3cc(OC)ccc3c2)=NC1=Cc1[nH]c(C)cc1C [Compound 27, 2-((3-methoxy-5-(2-methoxynaphthalen-6-yl)-2H-pyrrol-2-ylidene)methyl)-3,5-dimethyl-1H-pyrrole]	7 µM	6.26 µM
COC1=CC(c2ccco2)=NC1=Cc1[nH]c(C)cc1C [Compound 13, 2-((5-(furan-2-yl)-3-methoxy-2H-pyrrol-2-ylidene)methyl)-3,5-dimethyl-1H-pyrrole]	2 µM	40 µM
Cc1cc(C)c(C=C2N=C(c3ccc4c(c3)OCO4)C=C2OCc2ccccc2)[nH]1 [Compound 44, 5-(benzo[d][1,3]dioxol-5-yl)-3-(benzyloxy)-2-((3,5-dimethyl-1H-pyrrol-2-yl)methylene)-2H-pyrrole]	2.16 µM	8.3 µM
COC1=CC(c2ccc(OC)cc2C=O)=NC1=Cc1[nH]c(C)cc1C [Compound 11, 5-methoxy-2-(4-methoxy-5-((3,5-dimethyl-1H-pyrrol-2-yl)methylene)-5H-pyrrol-2-yl)benzaldehyde]	7 µM	12.5 µM
COc1ccc(C2=NC(=Cc3[nH]c(C)cc3C)C(OCc3ccccc3)=C2)cc1OC [Compound 43, 3-(benzyloxy)-5-(3,4-dimethoxyphenyl)-2-((3,5-dimethyl-1H-pyrrol-2-yl)methylene)-2H-pyrrole]	0.131 µM	0.709 µM
COC1=CC(c2cnc(OC)nc2OC)=NC1=Cc1[nH]c(C)cc1C [Compound 32, 2,4-dimethoxy-5-(4-methoxy-5-((3,5-dimethyl-1H-pyrrol-2-yl)methylene)-5H-pyrrol-2-yl)pyrimidine]	6.33 µM	6.87 µM
COC1=CC(c2ccc(OC)c(OC)c2OC)=NC1=Cc1[nH]c(C)cc1C [Compound 18, 2-((3-methoxy-5-(2,3,4-trimethoxyphenyl)-2H-pyrrol-2-ylidene)methyl)-3,5-dimethyl-1H-pyrrole]	2 µM	4 µM
COC1=CC(c2ccoc2)=NC1=Cc1[nH]c(C)cc1C [Compound 14, 2-((5-(furan-3-yl)-3-methoxy-2H-pyrrol-2-ylidene)methyl)-3,5-dimethyl-1H-pyrrole]	0.7 µM	6.5 µM
COC1=CC(c2cccnc2F)=NC1=Cc1[nH]c(C)cc1C [Compound 40, 2-fluoro-3-(4-methoxy-5-((3,5-dimethyl-1H-pyrrol-2-yl)methylene)-5H-pyrrol-2-yl)pyridine]	8.55 µM	20 µM
COC1=CC(c2ccc(OC)c(C)c2)=NC1=Cc1[nH]c(C)cc1C [Compound 24, 2-((3-methoxy-5-(4-methoxy-3-methylphenyl)-2H-pyrrol-2-ylidene)methyl)-3,5-dimethyl-1H-pyrrole]	0.503 µM	1.06 µM
COC1=CC(c2ccc(OCCN3CCCC3)cc2)=NC1=Cc1[nH]c(C)cc1C [Compound 21, 2-((5-(4-(2-(pyrrolidin-1-yl)ethoxy)phenyl)-3-methoxy-2H-pyrrol-2-ylidene)methyl)-3,5-dimethyl-1H-pyrrole]	0.69 µM	1.34 µM
COC1=CC(c2cc(OC)ccc2OC)=NC1=Cc1[nH]c(C)cc1C [Compound 19, 2-((3-methoxy-5-(2,5-dimethoxyphenyl)-2H-pyrrol-2-ylidene)methyl)-3,5-dimethyl-1H-pyrrole]	20 µM	20 µM
COC1=CC(c2ccc(N(C)C)cc2)=NC1=Cc1[nH]c(C)cc1C [Compound 22, 4-(4-methoxy-5-((3,5-dimethyl-1H-pyrrol-2-yl)methylene)-5H-pyrrol-2-yl)-N,N-dimethylbenzenamine]	0.29 µM	0.42 µM
COC1=CC(c2cnn(Cc3ccccc3)c2)=NC1=Cc1[nH]c(C)cc1C [Compound 37, 1-benzyl-4-(4-methoxy-5-((3,5-dimethyl-1H-pyrrol-2-yl)methylene)-5H-pyrrol-2-yl)-1H-pyrazole]	0.181 µM	1.65 µM
COC1=CC(c2ccc(OC)c(F)c2)=NC1=Cc1[nH]c(C)cc1C [Compound 26, 2-((5-(3-fluoro-4-methoxyphenyl)-3-methoxy-2H-pyrrol-2-ylidene)methyl)-3,5-dimethyl-1H-pyrrole]	0.849 µM	3.65 µM

SMILES	IC50 [1]	IC50 [2]
COC1=CC(c2ccc(OC)cc2OC)=NC1=Cc1[nH]c(C)cc1C [Compound 16, 2-((3-methoxy-5-(2,4-dimethoxyphenyl)-2H-pyrrol-2-ylidene)methyl)-3,5-dimethyl-1H-pyrrole]	3 µM	4.5 µM
COC1=CC(c2ccc(OC)c(OC)c2)=NC1=Cc1[nH]c(C)cc1C [Compound 17, 2-((3-methoxy-5-(3,4-dimethoxyphenyl)-2H-pyrrol-2-ylidene)methyl)-3,5-dimethyl-1H-pyrrole]	0.21 µM	0.58 µM
COC1=CC(c2ccc(Cl)cc2)=NC1=Cc1[nH]c(C)cc1C [Compound 2, 5-(4-chlorophenyl)-3-methoxy-2-((3,5-dimethyl-1H-pyrrol-2-yl)methylene)-2H-pyrrole]	2.5 µM	10 µM
COC1=CC(c2ccc(COC(C)(C)C)cc2)=NC1=Cc1[nH]c(C)cc1C [Compound 41, 2-((5-(4-(tert-butoxymethyl)phenyl)-3-methoxy-2H-pyrrol-2-ylidene)methyl)-3,5-dimethyl-1H-pyrrole]	4.17 µM	10.1 µM
COC1=CC(c2cccc3ncccc23)=NC1=Cc1[nH]c(C)cc1C [Compound 4, 5-(4-methoxy-5-((3,5-dimethyl-1H-pyrrol-2-yl)methylene)-5H-pyrrol-2-yl)quinoline]	16.6 µM	16.6 µM
COC1=CC(c2cccs2)=NC1=Cc1[nH]c(C)cc1C [Compound 6, 2-((3-methoxy-5-(thiophen-2-yl)-2H-pyrrol-2-ylidene)methyl)-3,5-dimethyl-1H-pyrrole]	6.5 µM	8.5 µM
COC1=CC(c2ccc(OC)nc2)=NC1=Cc1[nH]c(C)cc1C [Compound 42, 2-methoxy-5-(4-methoxy-5-((3,5-dimethyl-1H-pyrrol-2-yl)methylene)-5H-pyrrol-2-yl)pyridine]	7.9 µM	13.9 µM
COC1=CC(c2ccc3c(c2)OCO3)=NC1=Cc1[nH]c(C)cc1C [Compound 20, 2-((5-(benzo[d][1,3]dioxol-5-yl)-3-methoxy-2H-pyrrol-2-ylidene)methyl)-3,5-dimethyl-1H-pyrrole]	0.21 µM	0.55 µM
COC1=CC(c2cccc([N+](=O)[O-])c2)=NC1=Cc1[nH]c(C)cc1C [Compound 12, 2-((3-methoxy-5-(3-nitrophenyl)-2H-pyrrol-2-ylidene)methyl)-3,5-dimethyl-1H-pyrrole]	15 µM	14 µM
COC1=CC(c2ccc(OC)c(O)c2)=NC1=Cc1[nH]c(C)cc1C [Compound 38, 2-methoxy-5-(4-methoxy-5-((3,5-dimethyl-1H-pyrrol-2-yl)methylene)-5H-pyrrol-2-yl)phenol]	2 µM	6.69 µM
COC1=CC(c2ccc(F)cc2)=NC1=Cc1[nH]c(C)cc1C [Compound 5, 5-(4-fluorophenyl)-3-methoxy-2-((3,5-dimethyl-1H-pyrrol-2-yl)methylene)-2H-pyrrole]	2.2 µM	10 µM
COC1=CC(c2cc3ccccc3s2)=NC1=Cc1[nH]c(C)cc1C [Compound 10, 2-((5-(benzo[b]thiophen-2-yl)-3-methoxy-2H-pyrrol-2-ylidene)methyl)-3,5-dimethyl-1H-pyrrole]	3 µM	4.6 µM
COC1=CC(c2ccsc2)=NC1=Cc1[nH]c(C)cc1C [Compound 15, 2-((3-methoxy-5-(thiophen-3-yl)-2H-pyrrol-2-ylidene)methyl)-3,5-dimethyl-1H-pyrrole]	0.75 µM	6.6 µM
COC1=CC(c2ccc(C(=O)N3CCCC3)cc2)=NC1=Cc1[nH]c(C)cc1C [Compound 25, (4-(4-methoxy-5-((3,5-dimethyl-1H-pyrrol-2-yl)methylene)-5H-pyrrol-2-yl)phenyl)(pyrrolidin-1-yl)methanone]	7.75 µM	16.5 µM
COC1=CC(c2ccc(NS(C)(=O)=O)cc2)=N/C1=C\c1[nH]c(C)cc1C [Compound 8, N-4-(4-methoxy-5-((3,5-dimethyl-1H-pyrrol-2-yl)methylene)-5H-pyrrol-2-yl)-phenyl-methylsulfonamide]	8 µM	10 µM
COC1=CC(c2ccc(C=O)cc2)=NC1=Cc1[nH]c(C)cc1C [Compound 9, 4-(4-methoxy-5-((3,5-dimethyl-1H-pyrrol-2-yl)methylene)-5H-pyrrol-2-yl)benzaldehyde]	10.6 µM	21.6 µM
COC1=CC(c2cncnc2)=NC1=Cc1[nH]c(C)cc1C [Compound 35, 5-(4-methoxy-5-((3,5-dimethyl-1H-pyrrol-2-yl)methylene)-5H-pyrrol-2-yl)pyrimidine]	8.96 µM	15.9 µM
